{
  "source": "patent US20110059909A1",
  "about": "“METHODS FOR TREATING INFLAMMATORY DISORDERS” (priority 2004, published 2011)",
  "key": {"GFAP": {"tested_on": "GFAP", "experiment": "GFAP mRNA (real time PCR) and protein (immunoblot) in TNFα-stimulated primary astrocytes", "type": "cell-based, rat", "settings": "for TNFα-induced GFAP mRNA and protein expression: TNFα 1 ng/ml, mRNA 8 h, protein 18 h", "experimental": "(§1) For iNOS protein, the cells were washed with cold Tris buffered saline (TBS; 20 mM Trizma base, and 137 mM NaCl, pH 7.5), lysed in 1×SDS sample loading buffer (62.5 mM Trizma base, 2% w/v SDS, 10% glycerol), following sonication and centrifugation at 15,000×g for 5 min, the supernatant was used for the iNOS western immunoblot assay. The protein concentration of samples was determined with the detergent compatible protein assay reagent (Bio-Rad Laboratories, CA) using bovine serum albumin (BSA) as the standard. Sample was boiled for 3 min with 0.1 volumes of 10% β-mercaptoethanol and 0.5% bromophenol blue mix. Fifty μg of total cellular protein was resolved by electrophoresis on 8 or 12% polyacrylamide gels, electro-transferred to polyvinylidene difluoride (PVDF) filter and blocked with Tween 20 containing Tris-buffered saline (TBST; 10 mM Trizma base-pH 7.4, 1% Tween 20, and 150 mM NaCl) with 5% skim milk. After incubation with antiserum against iNOS (BD PharMingen, CA), rat GalT-2 (Abjent Inc., CA), H-Ras (Upstate Biotechnology, CA), GFAP (Santa Cruz Biotech, CA), or phospho-specific ERK1/2 (Cell signaling Tech Inc., MA), or pIκ-B (Signal Transduction), in PVDF buffer for 2 h at room temperature, the filters were washed 3 times with TBST buffer and then incubated with horseradish peroxidase conjugated anti-rabbit or mouse IgG for 1 h. The membranes were detected by autoradiography using ECL-plus (Amersham Pharmacia Biotech) after washing with TBST buffer."}, "iNOS": {"tested_on": "iNOS", "experiment": "iNOS mRNA (RT-PCR) and protein (immunoblot) in LPS/IFNγ-stimulated primary astrocytes", "type": "cell-based, rat", "settings": "for LPS/IFNγ-induced iNOS mRNA and protein levels: primary astrocytes, LPS/IFNγ (1 μg/ml; 10 U/ml), mRNA 6 h, protein 24 h", "experimental": "(§2) Primary astrocyte-enriched cultures were prepared from the whole cortex of one day old Sprague-Dawley rats as described earlier (Pahan et al., 1998b). Briefly, the cortex was rapidly dissected in ice-cold calcium/magnesium free Hanks Balanced Salt Solution (HBSS) (Gibco, Grand Island, N.Y.) at pH 7.4 as described previously (Won et al., 2001). The tissue was then minced, incubated in HBSS containing trypsin (2 mg/ml) for 20 min and washed twice in plating medium containing 10% FBS and 10 μg/ml gentamicin, and then disrupted by triturating through a Pasteur pipette following which cells were seeded in 75-cm^2 culture flasks (Falcon, Franklin, N.J.). After incubation at 37° C. in 5% CO2 for 1 day, the medium was completely changed to the culture medium (DMEM containing 5% FBS and 10 μg/ml gentamicin). The cultures received half exchanges with fresh medium twice a week. After 14-15 days the cells were shaken for at least 24 h on an orbital shaker to remove the microglia and then seeded on multi-well tissue culture dishes. The cells were incubated with serum-free DMEM for 24 h prior to the incubation with drugs.\nas §1\n5 μg total RNA was treated with 2 U DNAse I (bovine pancreas, Sigma) for 15 min at room temperature in 18 μl volume containing 1×PCR buffer and 2 mM MgCl2. It was then inactivated by incubation with 2 μl of 25 mM EDTA at 65° C. for 15 min. 2 μl of random primers were added and annealed to the RNA according to the manufacturer's protocol. cDNA was synthesized in a 50 μl reaction containing 5 μg of total RNA and 50-100 U reverse transcriptase by incubating the tubes at 42° C. for 60 min. PCR amplification was conducted in 25 μl of reaction mixture with 1.0 μl of cDNA, […] of each primer and under the manufacturer's Taq polymerase conditions (Takara, Takara Shuzo Co. Ltd, Japan). The sequence of primers used for PCR amplification are as follows; iNOS, (Forward-5′ […] 3′, SEQ ID NO:3; Reverse-5′ […] 3′, SEQ ID NO:4), GalT-2 (Forward-5′ tggtacaagctagaggc 3′, SEQ ID NO:5; Reverse-5′ gcatggcacattgaa C-3′, SEQ ID NO:6), GAPDH (Forward-5′ […] 3′, SEQ ID NO:7; Reverse-5′ cttcacgaagttgtcattgagggca3′, SEQ ID NO:8), TNFα (Forward-5′ […] g-3′, SEQ ID NO:9; Reverse-5′[…]-3′, SEQ ID NO:10) and IL-1β (Forward-5′[…]-3′, SEQ ID NO:11; reverse-5′[…]-3′, SEQ ID NO:12)."}, "rat primary astrocytes [1]": {"tested_on": "rat primary astrocytes", "experiment": "BrdU incorporation assay, proliferation of primary astrocytes", "type": "cell-based", "settings": "for TNFα-induced astrocyte proliferation: pretreated 0.5 h (AS: 48 h after transfection), TNFα 1 ng/ml 18 h", "experimental": "as §2\nProliferation of primary astrocytes was assayed by using the Cell proliferation ELISA, BrdU colorimetric assay kit (Roche, Germany) according to manufacturer's protocol. Briefly, cells were seeded in 96 well plates in quadruplicate and following overnight serum starvation were stimulated with mitogenic stimulants. 2 h before termination of proliferation assay, BrdU (10 μM) was added to each well following which cells were fixed and levels of incorporated BrdU were assayed by using a conjugated anti-BrdU enzyme. Colorimetric analysis was done by measuring absorbance at 370 nm using a spectramax MAX 190 (Molecular devices) multi-well plate reading spectrophotometer."}, "rat primary astrocytes [2]": {"tested_on": "rat primary astrocytes", "experiment": "Assay for NO production (nitrite, Griess reagent) in LPS/IFNγ-stimulated primary astrocytes", "type": "cell-based", "settings": "for LPS/IFNγ-induced NO production: primary astrocytes, LPS/IFNγ (1 μg/ml; 10 U/ml), NO at 24 h", "experimental": "as §2\nCells were cultured in 12-well plastic tissue culture plates. Following appropriate treatment, production of NO was determined by an assay of the culture supernatant for nitrite (Green et al., 1982). Briefly, 100 μl of culture supernatant was allowed to react with 100 μl of Griess reagent. The optical density of the assay samples was measured spectrophotometrically at 570 nm. Nitrite concentrations were calculated from a standard curve derived from the reaction of NaNO2 in fresh media."}, "NF-κB": {"tested_on": "NF-κB", "experiment": "κB-repeat luciferase reporter gene assay", "type": "cell-based, rat", "experimental": "Dominant negative and constitutively active ras expression vector (pCMVrasN17 and pCMVrasv12) and κB repeat luciferase reporter construct (pNF-κB-Luc) were purchased from BD Biosciences. 3×10^5 cells/well were cultured in 6-well plates for one day before the transfection. Transfection was performed with plasmid concentration constant (2.5 μg/transfection) and 8 μl of Fugene transfection reagent (Roche Molecular Biochemicals). 24 h after transfection, the cells were placed in serum free media for overnight. Following appropriate treatment, the cells were washed with phosphate buffered saline (PBS), scraped, and then resuspended with 100 μl of lysis buffer (40 mM of Tricine pH 7.8, 50 mM of NaCl, 2 mM of EDTA, 1 mM of MgSO4, 5 mM of dithiothreitol, and 1% of Triton X-100). After incubation at room temperature for 15 min with occasional vortexing, the samples were centrifuged. The luciferase and β-galactosidase activities were measured by using luciferase assay kit (Stratagene, CA) and β-gal assay kit (Invitrogen, CA) respectively. The emitted light and optical absorbance was measured using Spectra Max/Gemini XG (Molecular Device, CA) and SpectraMax 190 (Molecular Device)."}},
  "data": [
    {"compound": "AS GalT-2 oligonucleotides: 20-mer antisense oligonucleotide 5′-CGCTTGAGCGCAGACATCTT-3′, SEQ ID NO:1, against rat lactosylceramide synthase (GalT-2) (antisense CGCTTGAGCGCAGACATCTT; chemistry not given here)", "values": [
      {"measurement": "TNFα-induced GFAP mRNA and protein expression", "setting": "GFAP", "value": "diminished"},
      {"measurement": "LPS/IFNγ-induced iNOS mRNA and protein levels", "setting": "iNOS", "value": "decreased"},
      {"measurement": "TNFα-induced astrocyte proliferation", "setting": "rat primary astrocytes [1]; BrdU incorporation", "value": "decreased"},
      {"measurement": "LPS/IFNγ-induced NO production", "setting": "rat primary astrocytes [2]", "value": "decreased"}
    ]},
    {"compound": "CCCCCCCCCC(=O)NC(CN1CCOCC1)C(O)c1ccccc1.Cl", "note": "[PDMP, D-threo-1-Phenyl-2-decanoylamino-3-morpholino-1-propanol.HCl]", "values": [
      {"measurement": "TNFα-induced GFAP mRNA and protein expression", "setting": "GFAP", "value": "inhibited"},
      {"measurement": "LPS/IFNγ-induced κB-luciferase activity", "setting": "NF-κB; PDMP 0.5 h before LPS/IFNγ", "value": "abolished"},
      {"measurement": "LPS/IFNγ-induced iNOS mRNA and protein levels", "setting": "iNOS", "value": "dose dependent decrease"},
      {"measurement": "TNFα-induced astrocyte proliferation", "setting": "rat primary astrocytes [1]; BrdU incorporation", "value": "dose dependently inhibited"},
      {"measurement": "LPS/IFNγ-induced NO production", "setting": "rat primary astrocytes [2]", "value": "dose dependent decrease"}
    ]},
    {"compound": "Lactosylceramide [LacCer]", "values": [
      {"measurement": "Reversal of PDMP-mediated inhibition of TNFα-induced GFAP expression", "setting": "GFAP; PDMP 25 μM plus LacCer 5 μM", "value": "reversed"},
      {"measurement": "Reversal of AS-mediated inhibition of GFAP expression", "setting": "GFAP; exogenous LacCer", "value": "blunted"},
      {"measurement": "Reversal of LY-mediated inhibition of TNFα-mediated GFAP expression", "setting": "GFAP; exogenous LacCer", "value": "effectively bypassed"},
      {"measurement": "Effect on PD98059-mediated inhibition of GFAP expression", "setting": "GFAP; exogenous LacCer, TNFα", "value": "no effect"},
      {"measurement": "Reversal of DMS-mediated inhibition of TNFα-induced GFAP expression", "setting": "GFAP; exogenous lipid", "value": "reversed"},
      {"measurement": "Reversal of PDMP effect on κB-luciferase activity", "setting": "NF-κB; exogenous LacCer", "value": "effectively bypassed"},
      {"measurement": "Reversal of NAC- and PDTC-mediated inhibition of LPS/IFNγ-stimulated iNOS gene expression", "setting": "iNOS; NAC 10 mM or PDTC 100 μM, exogenous LacCer", "value": "not reversed"},
      {"measurement": "Reversal of PDMP-mediated inhibition of iNOS gene expression", "setting": "iNOS; PDMP 50 μM plus LacCer 5 and 10 μM, 0.5 h before LPS/IFNγ", "value": "blunted"},
      {"measurement": "Effect on PD98059-mediated inhibition of iNOS gene expression", "setting": "iNOS; exogenous LacCer, LPS/IFNγ", "value": "no effect"},
      {"measurement": "Reversal of LY-mediated inhibition of TNFα-induced proliferation", "setting": "rat primary astrocytes [1]; LY 30 μM plus exogenous lipid", "value": "effectively blunted"},
      {"measurement": "Reversal of PDMP-mediated inhibition of TNFα-induced proliferation", "setting": "rat primary astrocytes [1]; PDMP 25 μM plus exogenous lipid", "value": "able to bypass"},
      {"measurement": "Reversal of GalT-2 AS-mediated inhibition of TNFα-induced proliferation", "setting": "rat primary astrocytes [1]; exogenous LacCer", "value": "bypassed the inhibition"},
      {"measurement": "Reversal of DMS-mediated inhibition of TNFα-induced proliferation", "setting": "rat primary astrocytes [1]; exogenous lipid", "value": "reversed"},
      {"measurement": "Reversal of PD98059-mediated inhibition of TNFα-induced proliferation", "setting": "rat primary astrocytes [1]; exogenous lipid", "value": "could not be reversed"},
      {"measurement": "Proliferation of astrocytes induced by the substance itself", "setting": "rat primary astrocytes [1]; increasing doses (1, 5 and 10 μM for GSL), 18 h, BrdU incorporation", "value": "induced proliferation"},
      {"measurement": "Reversal of PDMP-mediated inhibition of LPS/IFNγ-induced NO production", "setting": "rat primary astrocytes [2]; PDMP 50 μM plus exogenous glycosphingolipid 5 and 10 μM, 0.5 h before LPS/IFNγ", "value": "blunted"},
      {"measurement": "Reversal of GalT-2 AS-mediated inhibition of NO production and iNOS levels", "setting": "rat primary astrocytes [2]; exogenous LacCer, LPS/IFNγ", "value": "reversed the inhibition"}
    ]}
  ]
}
